In test [1] the target is T1, human 5-HT1A receptors (Homo sapiens, UniProt P08908).
T1 construct: expressed in transfected cells; host or cells: CHO cells, stably transfected
T1 sequence (P08908 1-422): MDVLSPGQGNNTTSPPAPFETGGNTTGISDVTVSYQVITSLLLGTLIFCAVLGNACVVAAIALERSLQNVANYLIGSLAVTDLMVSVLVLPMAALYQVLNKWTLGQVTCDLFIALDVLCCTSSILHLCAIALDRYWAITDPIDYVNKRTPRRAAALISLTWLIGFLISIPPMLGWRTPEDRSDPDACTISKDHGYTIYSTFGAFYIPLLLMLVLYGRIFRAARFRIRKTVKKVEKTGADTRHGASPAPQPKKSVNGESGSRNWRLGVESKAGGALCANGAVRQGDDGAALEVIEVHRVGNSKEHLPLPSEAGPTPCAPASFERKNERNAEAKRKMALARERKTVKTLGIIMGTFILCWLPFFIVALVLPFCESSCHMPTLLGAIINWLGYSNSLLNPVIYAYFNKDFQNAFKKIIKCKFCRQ
Nature of the test: 35S-GTPγS binding assay, membranes containing cloned human 5-HT1A receptors. In kind it is biochemical. The conditions noted are these: for IC50: read-out: 5-HT1A Function GTPγS IC50. The source says: (§1) The agonist or antagonist activity at 5-HT1A receptors was established by using two different assays. The ^35S-GTPγS binding assay similar to that used by Lazareno and Birdsall (Br. J. Pharmacol., 1993, 109: 1120) was used to determine the test compound's ability to affect the binding of ^35S-GTPγS to membranes containing cloned human 5-HT1A receptors. Agonists produce an increase in binding whereas antagonists produce no increase but rather reverse the effects of the standard agonist 8-OH-DPAT. The test compound's maximum stimulatory effect is represented as the Emax, while its potency is defined by the EC50. The test compound's maximum inhibitory effect is represented as the Imax, while its potency is defined by the IC50. The second assay measured cAMP accumulation upon binding of the ligand to the 5-HT1A receptor. Antagonists block the effect of the standard agonist 8-OH-DPAT resulting in an increase in cAMP accumulation while agonists have the reverse effect. The test compound's maximum stimulatory or inhibitory effect is represented as the Emax while its potency is defined by either IC50 for an antagonist or EC50 for an agonist. [^3H]-8-OH-DPAT was used to determine maximum agonist or antagonist response in both functional assays.
(In general: GTPγS resists hydrolysis and so accumulates on activated G proteins.)

The target of another test is h5-HT Transporter (Homo sapiens, UniProt P31645). Nature of the test: h5-HT Transporter Function (Table 1). The class given is biochemical.
Chain of h5-HT Transporter (P31645 whole entry): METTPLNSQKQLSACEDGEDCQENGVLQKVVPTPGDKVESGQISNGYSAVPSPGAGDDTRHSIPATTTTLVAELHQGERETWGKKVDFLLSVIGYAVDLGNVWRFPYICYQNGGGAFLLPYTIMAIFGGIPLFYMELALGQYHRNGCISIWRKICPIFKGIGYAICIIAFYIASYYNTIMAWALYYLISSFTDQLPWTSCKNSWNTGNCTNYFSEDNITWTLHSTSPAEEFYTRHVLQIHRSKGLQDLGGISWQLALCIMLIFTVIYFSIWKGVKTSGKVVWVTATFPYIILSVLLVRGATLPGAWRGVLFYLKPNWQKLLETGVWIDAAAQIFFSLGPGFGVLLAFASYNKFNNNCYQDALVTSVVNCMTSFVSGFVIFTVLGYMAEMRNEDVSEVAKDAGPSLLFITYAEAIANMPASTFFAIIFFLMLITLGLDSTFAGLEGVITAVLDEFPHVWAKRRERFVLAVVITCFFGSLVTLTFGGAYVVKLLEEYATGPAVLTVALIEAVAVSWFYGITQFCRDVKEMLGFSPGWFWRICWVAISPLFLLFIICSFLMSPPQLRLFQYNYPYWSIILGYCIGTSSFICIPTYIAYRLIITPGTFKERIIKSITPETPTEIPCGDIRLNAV
For another test, the target named is T2, h5HT1a receptor (Homo sapiens, UniProt P08908).
T2 construct: expressed in transfected cells; host or cells: CHO cells, stably transfected
T2 sequence (P08908 1-422): T1 sequence (P08908 1-422)
The experiment in a line: cAMP RIA in CHO cells stably transfected with the h5HT1a receptor. Particulars: for EC50: agonist, forskolin-stimulated cAMP, read-out: 5-HT1A Function cAMP EC50; for IC50: antagonist, reversal of agonist 8-OH-DPAT, read-out: 5-HT1A Function cAMP IC50. In kind it is cell-based.
Text: as §1
Stabily transfected CHO cells were grown in DMEM containing 10% heat inactivated FBS and non-essential amino acids. The cells were plated at a density of 10(6) cells per well in a 24 well plate and incubated for 2 days in a CO2 incubator. On the second day, the media was replaced with 0.5 ml treatment buffer (DMEM+25 mM HEPES, 5 mM theophylline, 10 uM pargyline) and incubated 10 minutes at 37° C.
Wells were treated with forskolin (1 μM final conc) followed immediately by test compound (0.1 and 1 uM for initial screen) and incubated for an additional 10 min at 37° C. The reaction was terminated by removal of the media and addition of 0.5 ml ice cold assay buffer (supplied in RIA kit). Plates were stored at −20° C. prior to assessment of cAMP formation by RIA.
Compounds shown to have no agonist activities were further analyzed for ability to reverse agonist activity. In separate experiments, 6 concentrations of antagonist were preincubated for 20 minutes prior to the addition of agonist and forskolin. Cells were harvested as described. The cAMP kit was supplied by Amersham and the RIA was performed as per kit instructions.

Test [2] deals with T1, human 5-HT1A receptors. Nature of the test: 8-OH-DPAT binding in CHO cells stably transfected with human 5HT1a receptor. The conditions noted are these: displacement of [3H]8-OH-DPAT, CHO cells with human 5-HT1A; read-out: 5-HT1A Receptor Affinity Ki. How it is done:
High affinity for the serotonin 5-HT1A receptor was established by testing the claimed compound's ability to displace [^3H] 8-OH-DPAT (dipropylaminotetralin) from the 5-HT1A serotonin receptor following a modification of the procedure of Hall et al., (J. Neurochem., 1985, 44: 1685) which utilizes CHO cells stably transfected with human 5-HT1A receptors.
Stabily transfected CHO cells were grown in DMEM containing 10% heat inactivated FBS and non-essential amino acids. Cells were scraped off the plate, transferred to centrifuge tubes, and washed twice by centrifugation (2000 rpm for 10 min., 4° C.) in buffer (50 mM Tris pH 7.5). The resulting pellets were aliquoted and placed at −80° C. On day of assay, the cells were thawed on ice, and resuspended in buffer. The binding assay was performed in a 96 well microtiter plate in a total volume of […].
Non-specific binding was determined in the presence of […] 5HT, final ligand concentration is 1.5 nM. Following a 30 minute incubation at room temperature, the reaction was terminated by the addition of ice cold buffer and rapid filtration through a GF/B filter presoaked for 30 minutes in 0.5% PEI. Compounds were initially tested in a single point assay to determine percent inhibition at […]. Subsequently, Ki values were determined for compounds defined to be active.

Usually EC50 stands for the concentration needed to bring the measured effect to its halfway point. As a reminder, the IC50 is the point on the concentration scale where inhibition reaches its midpoint. A word on the Ki: it is a measure of affinity in units of concentration, obtained from inhibition or displacement.

As for `COc1ccc(C(N)=O)c2c1OC[C@H](NCCCc1c[nH]c3ccc(F)cc13)C2` [Example 1, (3R)-3-[3-(5-fluoro-1H-indol-3-yl)propyl]amino-8-methoxychromane-5-carboxamide], the EC50 at human 5-HT1A receptors [1] (agonist potency, read-out: 5-HT1A Function GTPγS EC50) turned out to be 489 nM; on h5HT1a receptor it was 230 nM. The compound further had an IC50 at h5-HT Transporter of 234 nM. In addition, the Ki at human 5-HT1A receptors [2] turned out to be 113 nM.
As to `COc1ccc(C(N)=O)c2c1OC[C@H](N(CCCc1c[nH]c3ccc(F)cc13)C1CCC1)C2` [Example 2, (3R)-3-{cyclobutyl[3-(5-fluoro-1H-indol-3-yl)propyl]amino}-8-methoxychromane-5-carboxamide], the IC50 was 119 nM on human 5-HT1A receptors [1], 13.2 nM on h5-HT Transporter and 92.1 nM on h5HT1a receptor. Further, the Ki on human 5-HT1A receptors [2] amounted to 10.4 nM.
With `CCOc1ccc(C(N)=O)c2c1OC[C@H](N(CCCc1c[nH]c3ccc(F)cc13)C1CCC1)C2` [Example 3, (3R)-3-{cyclobutyl[3-(5-fluoro-1H-indol-3-yl)propyl]amino}-8-ethoxychromane-5-carboxamide], the IC50 stood at 5030 nM at human 5-HT1A receptors [1], 329 nM on h5-HT Transporter and 768 nM on h5HT1a receptor. Moreover, the Ki on human 5-HT1A receptors [2] came out at 108 nM.
On to `CCCOc1ccc(C(N)=O)c2c1OC[C@H](N(CCCc1c[nH]c3ccc(F)cc13)C1CCC1)C2` [Example 4, (3R)-3-{cyclobutyl[3-(5-fluoro-1H-indol-3-yl)propyl]amino}-8-propoxychromane-5-carboxamide], for which the IC50 at human 5-HT1A receptors [1] turned out to be 684 nM; against h5-HT Transporter, 450 nM. Further, at h5HT1a receptor, the EC50 stood at 151 nM. The inhibition constant Ki on human 5-HT1A receptors [2] amounted to 70.1 nM.
On to `CC(C)Oc1ccc(C(N)=O)c2c1OC[C@H](N(CCCc1c[nH]c3ccc(F)cc13)C1CCC1)C2` [Example 5, (3R)-3-{cyclobutyl[3-(5-fluoro-1H-indol-3-yl)propyl]amino}-8-isopropoxychromane-5-carboxamide], for which the IC50 at human 5-HT1A receptors [1] was found to be 3150 nM; against h5-HT Transporter it was 214 nM. Also, the EC50 at h5HT1a receptor came out at 118 nM. The Ki on human 5-HT1A receptors [2] worked out at 35.3 nM.
Taken in the same sequence, the figures for `NC(=O)c1ccc(O)c2c1C[C@@H](N(CCCc1c[nH]c3ccc(F)cc13)C1CCC1)CO2` [Example 6, (3R)-3-{cyclobutyl[3-(5-fluoro-1H-indol-3-yl)propyl]amino}-8-hydroxychromane-5-carboxamide] were 2550 nM, 347 nM, 312 nM and 136 nM.
As to `COc1ccc(C(N)=O)c2c1OC[C@H](N(CCCc1c[nH]c3ccc(F)cc13)CCC(F)(F)F)C2` [Example 7, (3R)-3-{3,3,3-trifluoropropyl[3-(5-fluoro-1H-indol-3-yl)propyl]amino}-8-methoxychromane-5-carboxamide], on h5-HT Transporter, 2680 nM corresponded to half-maximal inhibition (IC50). The Ki on human 5-HT1A receptors [2] came to 636 nM.
In the case of `COc1ccc(C(N)=O)c2c1OC[C@H](N(CCCc1c[nH]c3ccc(F)cc13)CC1CC1)C2` [Example 8, (3R)-3-{cyclopropylmethyl[3-(5-fluoro-1H-indol-3-yl)propyl]amino}-8-methoxychromane-5-carboxamide], the figures for the IC50 at human 5-HT1A receptors [1], against h5-HT Transporter and on h5HT1a receptor were 442 nM, 45.3 nM and 439 nM, respectively. Further, the Ki at human 5-HT1A receptors [2] was found to be 25.5 nM.
Compound `COc1ccc(C(N)=O)c2c1OC[C@H](N(CCCc1c[nH]c3ccc(F)cc13)CCCC(F)(F)F)C2` [Example 12, (3R)-3-{4,4,4-trifluorobutyl[3-(5-fluoro-1H-indol-3-yl)propyl]amino}-8-methoxychromane-5-carboxamide] had an IC50 on h5-HT Transporter of 2580 nM.
In the case of `COc1ccc(C(N)=O)c2c1OC[C@H](N(CCCc1c[nH]c3ccc(F)cc13)CC(C)C)C2` [Example 13, (3R)-3-{2-methylpropyl[3-(5-fluoro-1H-indol-3-yl)propyl]amino}-8-methoxychromane-5-carboxamide], the IC50 on human 5-HT1A receptors [1] worked out at 2950 nM; against h5-HT Transporter it was 339 nM. Also, the Ki on human 5-HT1A receptors [2] is 214 nM.
As for `CCN(CCCc1c[nH]c2ccc(F)cc12)[C@H]1COc2c(OC)ccc(C(N)=O)c2C1` [Example 14, (3R)-3-{ethyl[3-(5-fluoro-1H-indol-3-yl)propyl]amino}-8-methoxychromane-5-carboxamide], the IC50 came out at 1370 nM at human 5-HT1A receptors [1] and 2.62 nM against h5-HT Transporter. Also, at human 5-HT1A receptors [2], the Ki was 402 nM.
Compound `COc1ccc(C(N)=O)c2c1OC[C@H](N(C)CCCc1c[nH]c3ccc(F)cc13)C2` [Example 15, (3R)-3-{methyl[3-(5-fluoro-1H-indol-3-yl)propyl]amino}-8-methoxychromane-5-carboxamide] came in with an IC50 at h5-HT Transporter of 160 nM. Besides, the Ki at human 5-HT1A receptors [2] turned out to be 1700 nM.
Taken in the same sequence, the figures for `CNC(=O)c1ccc(OC)c2c1C[C@@H](N(CCCc1c[nH]c3ccc(F)cc13)CCC(F)(F)F)CO2` [Example 17, (3R)-3-{3,3,3-trifluoropropyl[3-(5-fluoro-1H-indol-3-yl)propyl]amino}-8-methoxychromane-5-methylcarboxamide] were 5540 nM and 662 nM.
With `COc1ccc(C(N)=O)c2c1OC[C@H](N(CCCc1c[nH]c3c(F)cc(F)cc13)C1CCC1)C2` [Example 18, (3R)-3-{cyclobutyl[3-(5,7-difluoro-1H-indol-3-yl)propyl]amino}-8-methoxy-chromane-5-carboxamide], the IC50 is 110 nM at h5-HT Transporter and 94.2 nM on h5HT1a receptor. For the same compound, the Ki on human 5-HT1A receptors [2] worked out at 61.3 nM.
Taken in the same sequence, the figures for `COc1ccc(C(N)=O)c2c1OC[C@H](N(CCCC1CNc3ccc(F)cc31)C1CCC1)C2` (stereo partly drawn) [Example 19, (3R)-3-{cyclobutyl[3-(5-fluoro-1H-indolin-3-yl)propyl]amino}-8-methoxy-chromane-5-carboxamide] were 407 nM, 99.9 nM and 43.6 nM.
Taken in the same sequence, the figures for `CCSc1ccc(C(N)=O)c2c1OC[C@H](N(CCCc1c[nH]c3ccc(F)cc13)C1CCC1)C2` [Example 23, (3R)-3-{cyclobutyl[3-(5-fluoro-1H-indol-3-yl)propyl]amino}-8-(ethylthio)chromane-5-carboxamide] were 831 nM, 137 nM and 138 nM.
In turn, `CN(C)c1ccc(C(N)=O)c2c1OC[C@H](N(CCCc1c[nH]c3ccc(F)cc13)C1CCC1)C2` [Example 24, (3R)-3-{cyclobutyl[3-(5-fluoro-1H-indol-3-yl)propyl]amino}-8-(dimethylamino) chromane-5-carboxamide] returned an IC50 at h5-HT Transporter of 125 nM. The Ki on human 5-HT1A receptors [2] was determined as 72.7 nM.
For “(3R)-3-{2-isopropyl[3-(5-fluoro-1H-indol-3-yl)propyl]amino}-8-methoxychromane-5-carboxamide [Example 9]”, the Ki at human 5-HT1A receptors [2] was 515 nM.

The values are drawn from patent US20080221193A1, “3-AMINO CHROMANE DERIVATIVES” (Wyeth, priority 2006, published 2008).
